ChEMBL document CHEMBL4043145, “Pyridine-pyrimidine amides that prevent HGF-induced epithelial scattering by two distinct mechanisms” (Bioorg Med Chem Lett, 2017)

Legend:
Assay type in all cases: functional
A2780 [1] = assay: Induction of apoptosis in human A2780 cells assessed as nuclear debris at 300 nM by 7-AAD/Annexin staining-based assay (reference value: 0.3 to 1.1%)
A2780 [2] = assay: Induction of apoptosis in human A2780 cells assessed as viable cells at 300 nM by 7-AAD/Annexin staining-based assay (reference value: 95 to 96.7%); details: read-out: Activity
T47D [3] = assay: Induction of apoptosis in human T47D cells assessed as nuclear debris at 100 nM by 7-AAD/Annexin staining-based assay (reference value: 0.2 to 7.7%)
MFE-296 [4] = assay: Induction of apoptosis in human MFE296 cells assessed as viable cells at 100 nM by 7-AAD/Annexin staining-based assay (reference value: 90.9 to 94.4%); details: read-out: Activity
PC-3 [5] = assay: Induction of apoptosis in human p53-null PC3 cells assessed as early apoptotic cells at 300 nM by 7-AAD/Annexin staining-based assay (reference value: 0.6 to 1.4%)
PC-3 [6] = assay: Induction of apoptosis in human p53-null PC3 cells assessed as viable cells at 1000 nM by 7-AAD/Annexin staining-based assay (reference value: 96.5 to 98.6%); details: read-out: Activity
MFE-280 [7] = assay: Induction of apoptosis in human MFE280 cells assessed as nuclear debris at 1000 nM by 7-AAD/Annexin staining-based assay (reference value: 0.5 to 2.3%)
MFE-296 [8] = assay: Induction of apoptosis in human MFE296 cells assessed as late apoptotic cells at 100 nM by 7-AAD/Annexin staining-based assay (reference value: 3.6 to 6.6%)
MCF7 [9] = assay: Induction of apoptosis in human MCF7 cells assessed as nuclear debris at 300 nM by 7-AAD/Annexin staining-based assay (reference value: 0.2 to 3%)
MFE-296 [10] = assay: Induction of apoptosis in human MFE296 cells assessed as nuclear debris at 100 nM by 7-AAD/Annexin staining-based assay (reference value: 0.4 to 0.8%)
T47D [11] = assay: Induction of apoptosis in human T47D cells assessed as nuclear debris at 300 nM by 7-AAD/Annexin staining-based assay (reference value: 0.2 to 7.7%)
MFE-296 [12] = assay: Induction of apoptosis in human MFE296 cells assessed as nuclear debris at 1000 nM by 7-AAD/Annexin staining-based assay (reference value: 0.4 to 0.8%)
MFE-296 [13] = assay: Induction of apoptosis in human MFE296 cells assessed as late apoptotic cells at 1000 nM by 7-AAD/Annexin staining-based assay (reference value: 3.6 to 6.6%)
MFE-280 [14] = assay: Induction of apoptosis in human MFE280 cells assessed as nuclear debris at 300 nM by 7-AAD/Annexin staining-based assay (reference value: 0.5 to 2.3%)
A2780 [15] = assay: Induction of apoptosis in human A2780 cells assessed as early apoptotic cells at 300 nM by 7-AAD/Annexin staining-based assay (reference value: 1.7 to 2.1%)
PC-3 [16] = assay: Induction of apoptosis in human p53-null PC3 cells assessed as early apoptotic cells at 100 nM by 7-AAD/Annexin staining-based assay (reference value: 0.6 to 1.4%)
T47D [17] = assay: Induction of apoptosis in human T47D cells assessed as early apoptotic cells at 300 nM by 7-AAD/Annexin staining-based assay (reference value: 1.6 to 4.3%)
MFE-280 [18] = assay: Induction of apoptosis in human MFE280 cells assessed as viable cells at 300 nM by 7-AAD/Annexin staining-based assay (reference value: 84.9 to 87.7%); details: read-out: Activity
T47D [19] = assay: Induction of apoptosis in human T47D cells assessed as early apoptotic cells at 100 nM by 7-AAD/Annexin staining-based assay (reference value: 1.6 to 4.3%)
PC-3 [20] = assay: Induction of apoptosis in human p53-null PC3 cells assessed as nuclear debris at 1000 nM by 7-AAD/Annexin staining-based assay (reference value: 0.1 to 0.5%)
T47D [21] = assay: Induction of apoptosis in human T47D cells assessed as nuclear debris at 1000 nM by 7-AAD/Annexin staining-based assay (reference value: 0.2 to 7.7%)
PC-3 [22] = assay: Induction of apoptosis in human p53-null PC3 cells assessed as nuclear debris at 300 nM by 7-AAD/Annexin staining-based assay (reference value: 0.1 to 0.5%)
MCF7 [23] = assay: Induction of apoptosis in human MCF7 cells assessed as viable cells at 1000 nM by 7-AAD/Annexin staining-based assay (reference value: 92.6 to 96.8%); details: read-out: Activity
A2780 [24] = assay: Induction of apoptosis in human A2780 cells assessed as viable cells at 1000 nM by 7-AAD/Annexin staining-based assay (reference value: 95 to 96.7%); details: read-out: Activity
MCF7 [25] = assay: Induction of apoptosis in human MCF7 cells assessed as nuclear debris at 100 nM by 7-AAD/Annexin staining-based assay (reference value: 0.2 to 3%)
MFE-280 [26] = assay: Induction of apoptosis in human MFE280 cells assessed as nuclear debris at 100 nM by 7-AAD/Annexin staining-based assay (reference value: 0.5 to 2.3%)
MCF7 [27] = assay: Induction of apoptosis in human MCF7 cells assessed as viable cells at 300 nM by 7-AAD/Annexin staining-based assay (reference value: 92.6 to 96.8%); details: read-out: Activity
T47D [28] = assay: Induction of apoptosis in human T47D cells assessed as viable cells at 100 nM by 7-AAD/Annexin staining-based assay (reference value: 74.5 to 94.5%); details: read-out: Activity
A2780 [29] = assay: Induction of apoptosis in human A2780 cells assessed as late apoptotic cells at 100 nM by 7-AAD/Annexin staining-based assay (reference value: 1.2 to 2.2%)
PC-3 [30] = assay: Induction of apoptosis in human p53-null PC3 cells assessed as late apoptotic cells at 1000 nM by 7-AAD/Annexin staining-based assay (reference value: 0.4 to 1.6%)
A2780 [31] = assay: Induction of apoptosis in human A2780 cells assessed as early apoptotic cells at 100 nM by 7-AAD/Annexin staining-based assay (reference value: 1.7 to 2.1%)
A2780 [32] = assay: Induction of apoptosis in human A2780 cells assessed as early apoptotic cells at 1000 nM by 7-AAD/Annexin staining-based assay (reference value: 1.7 to 2.1%)
A2780 [33] = assay: Induction of apoptosis in human A2780 cells assessed as viable cells at 100 nM by 7-AAD/Annexin staining-based assay (reference value: 95 to 96.7%); details: read-out: Activity
T47D [34] = assay: Induction of apoptosis in human T47D cells assessed as late apoptotic cells at 100 nM by 7-AAD/Annexin staining-based assay (reference value: 3 to 13.4%)
MCF7 [35] = assay: Induction of apoptosis in human MCF7 cells assessed as early apoptotic cells at 300 nM by 7-AAD/Annexin staining-based assay (reference value: 2 to 2.7%)

## O=C(Nc1ccc(-c2cccc(Cl)c2)cn1)c1cncnc1
A2780 [1]
  Activity: 0.9%
A2780 [2]
  viability at 0.3 µM: 92.1%
T47D [3]
  Activity: 0.2%
MFE-296 [4]
  viability at 0.1 µM: 90.9%
PC-3 [5]
  Activity: 0.8%
PC-3 [6]
  viability at 1 µM: 97%
MFE-280 [7]
  Activity: 0.7%
MFE-296 [8]
  Activity: 5.7%
MCF7 [9]
  Activity: 0.5%
MFE-296 [10]
  Activity: 1.3%
T47D [11]
  Activity: 0.3%
MFE-296 [12]
  Activity: 2.9%
MFE-296 [13]
  Activity: 9.1%
MFE-280 [14]
  Activity: 0.7%
A2780 [15]
  Activity: 3.5%
PC-3 [16]
  Activity: 0.6%
T47D [17]
  Activity: 9.5%
MFE-280 [18]
  viability at 0.3 µM: 84.4%
T47D [19]
  Activity: 5.1%
PC-3 [20]
  Activity: 0.5%
T47D [21]
  Activity: 0.6%
PC-3 [22]
  Activity: 0.2%
MCF7 [23]
  viability at 1 µM: 94%
A2780 [24]
  viability at 1 µM: 90%
MCF7 [25]
  Activity: 0.4%
MFE-280 [26]
  Activity: 0.6%
MCF7 [27]
  viability at 0.3 µM: 92.4%
T47D [28]
  viability at 0.1 µM: 92.4%
A2780 [29]
  Activity: 3.2%
PC-3 [30]
  Activity: 1.2%
A2780 [31]
  Activity: 3.6%
A2780 [32]
  Activity: 4.5%
A2780 [33]
  viability at 0.1 µM: 92.7%
T47D [34]
  Activity: 2.3%
MCF7 [35]
  Activity: 4.1%

## CN[C@@H]1C[C@H]2O[C@@](C)([C@@H]1OC)n1c3ccccc3c3c4c(c5c6ccccc6n2c5c31)C(=O)NC4 [STAUROSPORINE]
A2780 [1]
  Activity: 1%
A2780 [2]
  viability at 0.3 µM: 87.1%
T47D [3]
  Activity: 0.1%
MFE-296 [4]
  viability at 0.1 µM: 83.6%
PC-3 [5]
  Activity: 1%
PC-3 [6]
  viability at 1 µM: 97.3%
MFE-280 [7]
  Activity: 3.1%
MFE-296 [8]
  Activity: 6.6%
MCF7 [9]
  Activity: 1.1%
MFE-296 [10]
  Activity: 2.4%
T47D [11]
  Activity: 0.4%
MFE-296 [12]
  Activity: 15.1%
MFE-296 [13]
  Activity: 60.3%
MFE-280 [14]
  Activity: 0.9%
A2780 [15]
  Activity: 3.4%
PC-3 [16]
  Activity: 1.2%
T47D [17]
  Activity: 5.5%
MFE-280 [18]
  viability at 0.3 µM: 57%
T47D [19]
  Activity: 2.5%
PC-3 [20]
  Activity: 0.2%
T47D [21]
  Activity: 0.6%
PC-3 [22]
  Activity: 0.1%
MCF7 [23]
  viability at 1 µM: 62.1%
A2780 [24]
  viability at 1 µM: 57.8%
MCF7 [25]
  Activity: 0.6%
MFE-280 [26]
  Activity: 1.1%
MCF7 [27]
  viability at 0.3 µM: 83.6%
T47D [28]
  viability at 0.1 µM: 95%
A2780 [29]
  Activity: 3.7%
PC-3 [30]
  Activity: 1.2%
A2780 [31]
  Activity: 5.4%
A2780 [32]
  Activity: 5.1%
A2780 [33]
  viability at 0.1 µM: 90.5%
T47D [34]
  Activity: 2.4%
MCF7 [35]
  Activity: 7.4%
